Reference: patent US9439843B2, “Oral care compositions” (Colgate-Palmolive Company, priority 2011, dated 2016)

Assay: Solubility of isobutyl magnolol (statement in words)
Type: physicochemical
Conditions: background statement

In the case of `CC(C)Cc1ccc(O)c(-c2cc(CC(C)C)ccc2O)c1` [isobutyl magnolol, 5,5′-di(2-methylpropyl)-biphenyl-2,2′-diol], the “solubility both in water and in oil” value is reported as “extremely poor”.
